How the values were obtained:
[1] = Therapeutic index, ratio of CC50 for cytotoxicity against HEK293T cells to IC50 for antiviral activity against human immunodeficiency virus expressed in HEK293T cells; format: toxicity, cell-based; conditions: read-out: Ratio CC50/IC50
Cytochrome P450 2D6 = Cytochrome P450 2D6 (Homo sapiens, UniProt P10635); assay: Inhibition of human recombinant CYP2D6 expressed in insect microsome using (3-[2-([…]-N-methylammonium)-ethyl]-7-methoxy-4-methylcoumarin iodide as a substrate incubated for 30 mins followed by addition of NADPH regenerating system measured immediately by fluorescence based analysis; format: ADME, microsomes
Cytochrome P450 3A4 = Cytochrome P450 3A4 (Homo sapiens, UniProt P08684); assay: Inhibition of human recombinant CYP3A4 expressed in insect microsome using 7-benzyloxy-4-trifluoromethylcoumarin as a substrate incubated for 30 mins followed by addition of NADPH regenerating system measured immediately by fluorescence based analysis; format: ADME, microsomes
[2] = Metabolic stability in human liver microsomes assessed as half life at 3 uM measured up to 30 min in presence of NADPH by LC-MS/MS analysis; format: ADME, Microsome; conditions: 0.5 h
HEK-293T = assay: Cytotoxicity against HEK293T cells assessed as reduction in cell viability measured after 48 hrs by CellTiter 96 Aqueous One Solution reagent based cell proliferation assay; conditions: human
[3] = test system: Human immunodeficiency virus; assay: Antiviral activity against human immunodeficiency virus expressed in HEK293T cells coexpressing firefly luciferase gene incubated for 48 hrs by Bright-Glo luciferase assay; format: functional, organism-based; conditions: Human immunodeficiency virus 1, HEK-293T
[4] = Ratio of prodrug AUC(0 to 24 hrs) to TFV AUC(0 to 24 hrs) in C57BL/6 mouse plasma at 10 mg/kg, po measured up to 24 hrs by LC-MS/MS analysis; format: ADME, organism-based; conditions: in vivo
[5] = Prodrug conversion in C57BL/6 mouse plasma assessed as AUC(0 to 24 hrs) of TFV metabolite at 10 mg/kg, po measured up to 24 hrs by LC-MS/MS analysis; format: ADME, organism-based; parameters: time < 24 hrs, dose 10 mg/kg, route po; conditions: in vivo
[6] = Prodrug conversion in C57BL/6 mouse plasma assessed as Tmax of TFV metabolite at 10 mg/kg, po measured up to 24 hrs by LC-MS/MS analysis; format: ADME, organism-based; conditions: in vivo
[7] = Cmax in C57BL/6 mouse plasma at 10 mg/kg, po measured up to 24 hrs by LC-MS/MS analysis; format: ADME, organism-based; parameters: dose 10 mg/kg, time < 24 hrs, route po; conditions: in vivo
[8] = Tmax in C57BL/6 mouse liver at 10 mg/kg, po measured up to 24 hrs by LC-MS/MS analysis; format: ADME, organism-based
[9] = Prodrug conversion in C57BL/6 mouse plasma assessed as Cmax of TFV metabolite at 10 mg/kg, po measured up to 24 hrs by LC-MS/MS analysis; format: ADME, organism-based; parameters: time < 24 hrs, dose 10 mg/kg, route po; conditions: in vivo
[10] = AUC(0 to 24 hrs) in C57BL/6 mouse plasma at 10 mg/kg, po measured up to 24 hrs by LC-MS/MS analysis; format: ADME, organism-based; parameters: time < 24 hrs, dose 10 mg/kg, route po; conditions: in vivo
[11] = Plasma protein binding in C57BL/6 mouse at 10 mg/kg, po measured up to 24 hrs by LC-MS/MS; format: ADME, organism-based; conditions: read-out: PPB
[12] = Prodrug conversion in C57BL/6 mouse liver assessed as Tmax of TFV metabolite at 10 mg/kg, po measured up to 24 hrs by LC-MS/MS analysis; format: ADME, organism-based; conditions: in vivo
[13] = Prodrug conversion in C57BL/6 mouse liver assessed as AUC(0 to 24 hrs) of TFV metabolite at 10 mg/kg, po measured up to 24 hrs by LC-MS/MS analysis; format: ADME, organism-based; parameters: time < 24 hrs, dose 10 mg/kg, route po; conditions: in vivo
[14] = Prodrug conversion in C57BL/6 mouse liver assessed as Cmax of TFV metabolite at 10 mg/kg, po measured up to 24 hrs by LC-MS/MS analysis; format: ADME, organism-based; parameters: dose 10 mg/kg, time < 24 hrs, route po; conditions: in vivo
[15] = Tmax in C57BL/6 mouse plasma at 10 mg/kg, po measured up to 24 hrs by LC-MS/MS analysis; format: ADME, organism-based; conditions: in vivo
[16] = Ratio of prodrug AUC(0 to 24 hrs) to TFV AUC(0 to 24 hrs) in C57BL/6 mouse liver at 10 mg/kg, po measured up to 24 hrs by LC-MS/MS analysis; format: ADME, organism-based; conditions: in vivo
[17] = Cmax in C57BL/6 mouse liver at 10 mg/kg, po measured up to 24 hrs by LC-MS/MS analysis; format: ADME, organism-based; parameters: time < 24 hrs, dose 10 mg/kg, route po; conditions: in vivo
[18] = AUC(0 to 24 hrs) in C57BL/6 mouse liver at 10 mg/kg, po measured up to 24 hrs by LC-MS/MS analysis; format: ADME, organism-based; parameters: time < 24 hrs, dose 10 mg/kg, route po; conditions: in vivo
[19] = Half life in C57BL/6 mouse plasma at 10 mg/kg, po measured up to 24 hrs by LC-MS/MS analysis; format: ADME, organism-based; conditions: in vivo
[20] = Prodrug conversion in […] patients assessed as AUC(0 to 24 hrs) of TFV metabolite at 50 mg, po qa administered for 28 days; format: ADME, organism-based; parameters: time 28 day, dose 50 mg, route po; conditions: human, in vivo, 672 h
[21] = Cmax in HBV patients at 50 mg, po qa administered for 28 days; format: ADME, organism-based; parameters: dose 50 mg, time 28 day, route po; conditions: human, in vivo
[22] = Prodrug conversion in […] patients assessed as Cmax of TFV metabolite at 50 mg, po qa administered for 28 days; format: ADME, organism-based; parameters: time 28 day, dose 50 mg, route po; conditions: human, in vivo, 672 h
[23] = test system: Human immunodeficiency virus; assay: Potency index, ratio of TFV IC50 to TXL IC50 for antiviral activity against human immunodeficiency virus expressed in HEK293T cells coexpressing firefly luciferase gene incubated for 48 hrs by Bright-Glo luciferase assay; format: functional
[24] = Tmax in HBV patients at 50 mg, po qa administered for 28 days; format: ADME, organism-based; conditions: human, in vivo, time 28 day
[25] = Half life in HBV patients at 50 mg, po qa administered for 28 days; format: ADME, organism-based; conditions: human, in vivo, time 28 day
[26] = AUC(0 to 24 hrs) in HBV patients at 50 mg, po qa administered for 28 days; format: ADME, organism-based; parameters: time 28 day, dose 50 mg, route po; conditions: human, in vivo
[27] = C57BL/6, mouse, liver, read-out: Tmax

Chain of Cytochrome P450 3A4 (P08684 whole entry): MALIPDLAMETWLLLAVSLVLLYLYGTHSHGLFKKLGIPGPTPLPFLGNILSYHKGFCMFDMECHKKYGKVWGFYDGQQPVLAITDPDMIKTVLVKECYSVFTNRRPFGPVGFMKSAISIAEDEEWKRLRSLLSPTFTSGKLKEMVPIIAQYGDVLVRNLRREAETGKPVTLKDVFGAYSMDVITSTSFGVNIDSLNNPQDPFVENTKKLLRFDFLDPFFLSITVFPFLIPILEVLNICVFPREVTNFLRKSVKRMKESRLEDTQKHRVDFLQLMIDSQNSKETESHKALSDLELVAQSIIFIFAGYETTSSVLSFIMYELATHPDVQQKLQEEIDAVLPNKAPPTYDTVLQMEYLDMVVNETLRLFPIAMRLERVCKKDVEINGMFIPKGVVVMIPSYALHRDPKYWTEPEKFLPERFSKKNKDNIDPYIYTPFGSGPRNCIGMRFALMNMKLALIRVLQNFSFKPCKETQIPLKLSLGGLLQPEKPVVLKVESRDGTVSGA
Chain of Cytochrome P450 2D6 (P10635 whole entry): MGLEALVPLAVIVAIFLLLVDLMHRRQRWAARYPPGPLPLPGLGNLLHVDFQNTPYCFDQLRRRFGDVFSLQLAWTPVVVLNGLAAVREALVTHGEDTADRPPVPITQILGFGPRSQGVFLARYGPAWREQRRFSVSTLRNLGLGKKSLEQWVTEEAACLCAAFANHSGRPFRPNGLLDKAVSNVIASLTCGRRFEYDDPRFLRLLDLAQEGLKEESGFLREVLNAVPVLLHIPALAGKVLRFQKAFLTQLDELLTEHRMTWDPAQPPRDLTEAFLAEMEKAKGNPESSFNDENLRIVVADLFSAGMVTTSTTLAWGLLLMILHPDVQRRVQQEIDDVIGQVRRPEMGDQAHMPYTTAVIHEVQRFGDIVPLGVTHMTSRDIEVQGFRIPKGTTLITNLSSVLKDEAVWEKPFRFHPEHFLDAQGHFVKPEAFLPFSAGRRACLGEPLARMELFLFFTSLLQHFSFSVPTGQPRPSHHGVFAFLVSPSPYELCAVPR

| SMILES | selectivity ratio [1] | IC50 (Cytochrome P450 2D6) [µM] | IC50 (Cytochrome P450 3A4) [µM] | t1/2 [2] [h] | CC50 (HEK-293T) [µM] | IC50 [3] [µM] | AUC [5] [ng·h/mL] | Tmax [6] [h] | Cmax [7] [ng/mL] | Cmax [9] [ng/mL] | AUC [10] [ng·h/mL] | fraction unbound at 24 h [11] | Tmax [12] [h] | AUC [13] [ng·h/mL] | Cmax [14] [ng/mL] | Tmax [15] [h] | Cmax [17] [ng/mL] | AUC [18] [ng·h/mL] | t1/2 [19] [h] | other results |
| --- | --- | --- | --- | --- | --- | --- | --- | --- | --- | --- | --- | --- | --- | --- | --- | --- | --- | --- | --- | --- |
| C[C@H](Cn1cnc2c(N)ncnc21)OCP(=O)(O)OCCCCCCCCCCCCCCCCCC#CC(F)(F)F.N | 423 | > 20 | > 20 | > 2 | 78.7 | – | – | – | – | – | – | – | – | – | – | – | – | – | – | – |
| C[C@H](Cn1cnc2c(N)ncnc21)OCP(=O)(O)OCCCOCCCCCCCCCCCCCC#CC(F)(F)F.N | > 4350 | > 20 | – | > 2 | > 100 | 0.023 | 425 | 1 | 153 | 42.8 | 643 | < 0.001 | 4 | 21900 | 1380 | 2 | 558 | 1310 | 2.69 | Ratio AUC [4]: 1.51; Tmax [8, 27]: 1 h; Ratio AUC [16]: 0.06 |
| C[C@H](Cn1cnc2c(N)ncnc21)OCP(=O)(O)OCCCCCCCCCCCCCCCCC#C[Si](C)(C)C.N | 792 | – | – | > 2 | 68.1 | 0.086 | – | – | – | – | – | – | – | – | – | – | – | – | – | – |
| C#CCCCCCCCCCCCCCCOCCCOP(=O)(O)CO[C@H](C)Cn1cnc2c(N)ncnc21.N | > 758 | > 20 | > 20 | > 2 | > 100 | 0.132 | – | – | – | – | – | – | – | – | – | – | – | – | – | – |
| CCCCCCCCCCCCCCCCSCCCOP(=O)(O)CO[C@H](C)Cn1cnc2c(N)ncnc21.N | 4980 | – | – | 0.7 | 49.8 | 0.01 | – | – | – | – | – | – | – | – | – | – | – | – | – | – |
| C#CCCCCCCCCCCCCCCCCCCOP(=O)(O)CO[C@H](C)Cn1cnc2c(N)ncnc21.N | 84 | – | > 50 | > 2 | 99.5 | 1.18 | – | – | – | – | – | – | – | – | – | – | – | – | – | – |
| C[C@H](Cn1cnc2c(N)ncnc21)OCP(=O)(O)OCCCOCCCCCCCCCCCCC#C[Si](C)(C)C.N | – | 21.7 | > 20 | > 2 | – | 0.069 | 142 | 12 | 120 | 14.1 | 550 | < 0.001 | 4 | 11200 | 671 | 2 | 8130 | 101000 | 2.49 | Tmax [8, 27]: 4 h |
| CCCCCCCCCCCCCCCCOCCCOP(=O)(O)CO[C@H](C)Cn1cnc2c(N)ncnc21.N | 5420 | – | – | 0.7 | 97.6 | – | 132 | 2 | 125 | 19.6 | 301 | < 0.001 | 17.3 | 26100 | 1460 | 1 | 2730 | 4970 | 2.92 | Ratio AUC [4]: 2.29; AUC [20]: 136 ng·h/mL; Tmax ([8]; mouse, in vivo, po, 10 mg/kg, 24 h): 1 h; Cmax [21]: 51 ng/mL; Cmax [22]: 8.5 ng/mL; Ratio IC50 [23]: 89; Tmax [24]: 1.5 h; half-life [25]: 1.5 h; AUC at 672 h [26]: 110 ng·h/mL; Ratio AUC [16]: 0.19 |
